Laboratory results from patent US4272437A, “Antibacterial agents, and 4-thio azetidinone intermediates” (priority 1979, dated 1981).
In brackets after ≈: the same amount, converted by molar mass. Read-outs that look alike come from different tables or passages of the source.

Experiments:
Str. pneumoniae A-9585 = assay: MIC, tube dilution, Streptococcus pneumoniae A9585; format: cell-based; conditions: Streptococcus pneumoniae, A9585, Str. pneumoniae A9585; overnight 37° C., Nutrient Broth; read-out: Minimum Inhibitory Concentration (M.I.C.)
From the text: (§1) Representative compounds of the present invention were subjected to in vitro antibiotic screening against a variety of microorganisms.

Str. pyogenes A-9604 = assay: MIC, tube dilution, Streptococcus pyogenes A9604; format: cell-based; conditions: Streptococcus pyogenes, A9604, Str. pyogenes A9604; overnight 37° C., Nutrient Broth; read-out: Minimum Inhibitory Concentration (M.I.C.)
From the text: as §1

Staph. aureus A-9537 = assay: MIC, tube dilution, Staphylococcus aureus A9537; format: cell-based; conditions: Staphylococcus aureus, A9537, Staph. aureus A9537; overnight 37° C., Nutrient Broth; read-out: Minimum Inhibitory Concentration (M.I.C.)
From the text: as §1

[1] = system: Staph. aureus A-9537 and 50% serum; assay: MIC, tube dilution, Staph. aureus A9537 + 50% serum; format: cell-based, Staphylococcus aureus; conditions: Staphylococcus aureus, overnight 37° C., read-out: Minimum Inhibitory Concentration (M.I.C.)
From the text: as §1

[2] = system: Staph. aureus (Pen-Res) A-9606; assay: MIC, tube dilution, Staphylococcus aureus A9606 (Pen-Res); format: cell-based; conditions: Staphylococcus aureus, Staph. aureus A9606 (Pen-Res); overnight 37° C.; read-out: Minimum Inhibitory Concentration (M.I.C.)
From the text: as §1

[3] = system: Staph. aureus (Meth-Res) A-15097; assay: MIC, tube dilution, Staphylococcus aureus A15097 (Meth-Res); format: cell-based; conditions: Staphylococcus aureus, Staph. aureus A15097 (Meth-Res); overnight 37° C.; read-out: Minimum Inhibitory Concentration (M.I.C.)
From the text: as §1

Str. faecalis A-20688 = assay: MIC, tube dilution, Streptococcus faecalis A20688; format: cell-based; conditions: Enterococcus faecalis, A20688, Str. faecalis A20688; overnight 37° C.; read-out: Minimum Inhibitory Concentration (M.I.C.)
From the text: as §1

E. coli A-15119 = assay: MIC, tube dilution, Escherichia coli A15119; format: cell-based; conditions: Escherichia coli, A15119, E. coli A15119; overnight 37° C.; read-out: Minimum Inhibitory Concentration (M.I.C.)
From the text: as §1

E. coli A-20341-1 = assay: MIC, tube dilution, Escherichia coli A20341-1; format: cell-based
From the text: as §1

K. pneumoniae A-15130 = assay: MIC, tube dilution, Klebsiella pneumoniae A15130; format: cell-based; conditions: Klebsiella pneumoniae, A15130, K. pneumoniae A15130; overnight 37° C.; read-out: Minimum Inhibitory Concentration (M.I.C.)
From the text: as §1

[4] = system: Klebsiella species A20468; assay: MIC, tube dilution, Klebsiella species A20468; format: cell-based; conditions: Klebsiella species (K. pneumoniae) A20468; overnight 37° C.; read-out: Minimum Inhibitory Concentration (M.I.C.)
From the text: as §1

Pr. mirabilis A-9900 = assay: MIC, tube dilution, Proteus mirabilis A9900; format: cell-based; conditions: Proteus mirabilis, A9900, Proteus mirabilis A9900; overnight 37° C.; read-out: Minimum Inhibitory Concentration (M.I.C.)
From the text: as §1

Pr. morganii A-15153 = assay: MIC, tube dilution, Proteus morganii A15153; format: cell-based; conditions: Morganella morganii, A15153, Proteus morganii A15153; overnight 37° C.; read-out: Minimum Inhibitory Concentration (M.I.C.)
From the text: as §1

Ser. marcescens A-20019 = assay: MIC, tube dilution, Serratia marcescens A20019; format: cell-based; conditions: Serratia marcescens, A20019, Serratia marcescens A20019; overnight 37° C.; read-out: Minimum Inhibitory Concentration (M.I.C.)
From the text: as §1

Ent. cloacae A-9659 = assay: MIC, tube dilution, Enterobacter cloacae A9659; format: cell-based; conditions: Enterobacter cloacae, A9659, Enterobacter cloacae A9659; overnight 37° C.; read-out: Minimum Inhibitory Concentration (M.I.C.)
From the text: as §1

Ent. cloacae A-9656 = assay: MIC, tube dilution, Enterobacter cloacae A9656; format: cell-based; conditions: overnight 37° C., read-out: Minimum Inhibitory Concentration (M.I.C.)
From the text: as §1

Ps. aeruginosa A-9843A = assay: MIC, tube dilution, Pseudomonas aeruginosa A9843A; format: cell-based; conditions: Pseudomonas aeruginosa, A9843A, read-out: Minimum Inhibitory Concentration (M.I.C.), Pseudomonas aeruginosa A9843A; overnight 37° C.
From the text: as §1

Ps. aeruginosa A-21213 = assay: MIC, tube dilution, Pseudomonas aeruginosa A21213; format: cell-based; conditions: overnight 37° C., read-out: Minimum Inhibitory Concentration (M.I.C.)
From the text: as §1

Proteus rettgeri A21203 = assay: MIC, tube dilution, Proteus rettgeri A21203; format: cell-based; conditions: Providencia rettgeri, overnight 37° C., read-out: Minimum Inhibitory Concentration (M.I.C.)
From the text: as §1

Proteus vulgaris A21559 = assay: MIC, tube dilution, Proteus vulgaris A21559; format: cell-based; conditions: Proteus vulgaris, A21559, Proteus vulgaris A21559; overnight 37° C.; read-out: Minimum Inhibitory Concentration (M.I.C.)
From the text: as §1

[5] = Escherichia coli, A203411, E. coli A20341-1; overnight 37° C.; read-out: Minimum Inhibitory Concentration (M.I.C.)
[6] = Enterobacter cloacae, A9656, Enterobacter cloacae A9656
[7] = Pseudomonas aeruginosa, A21213, Pseudomonas aeruginosa A21213
[8] = A21203, Proteus rettgeri A21203

SMILES	MIC (Str. pneumoniae A-9585) [µg/mL]	MIC (Str. pyogenes A-9604) [µg/mL]	MIC (Staph. aureus A-9537) [µg/mL]	MIC [1] [µg/mL]	MIC [2] [µg/mL]	MIC [3] [µg/mL]	MIC (Str. faecalis A-20688) [µg/mL]	MIC (E. coli A-15119) [µg/mL]	MIC (K. pneumoniae A-15130) [µg/mL]	MIC [4] [µg/mL]	MIC (Pr. mirabilis A-9900) [µg/mL]	MIC (Pr. morganii A-15153) [µg/mL]	MIC (Ser. marcescens A-20019) [µg/mL]	MIC (Ent. cloacae A-9659) [µg/mL]	MIC (Ps. aeruginosa A-9843A) [µg/mL]	MIC (Proteus vulgaris A21559) [µg/mL]	MIC (E. coli A-20341-1; [5]) [µg/mL]	MIC (Ent. cloacae A-9656; [6]) [µg/mL]	MIC (Ps. aeruginosa A-21213; [7]) [µg/mL]	MIC (Proteus rettgeri A21203; [8]) [µg/mL]	other results
Cc1cc(C)n(CC2=C(C(=O)O)N3C(=O)CC3S2)n1 (stereo not drawn) [Example 77, Sodium 2-(3,5-Dimethyl-1H-pyrazolemethyl)-penem-3-carboxylate]	0.03	0.5	0.13	> 63	4	16	125	4	> 125	> 125	2	16	> 125	> 125	> 125	63	–	–	–	–	MIC (E. coli A-20341-1; Escherichia coli, A203411; E. coli A20341-1; overnight 37° C.; read-out: Minimum Inhibitory Concentration (M.I.C.)): > 125 µg/mL; MIC (Ent. cloacae A-9656; Enterobacter cloacae A9656): 125 µg/mL; MIC (Ps. aeruginosa A-21213; Pseudomonas aeruginosa A21213): > 125 µg/mL; MIC (Proteus rettgeri A21203; Proteus rettgeri A21203): > 125 µg/mL
NCC(=O)OCC1=C(C(=O)O)N2C(=O)CC2S1 (stereo not drawn) [Example 81, 2-Aminoacetoxymethyl-penem-3-carboxylic Acid]	2 (≈ 7.74 µM)	16 (≈ 62 µM)	32 (≈ 124 µM)	> 32	2 (≈ 7.74 µM)	8 (≈ 31 µM)	63 (≈ 244 µM)	2 (≈ 7.74 µM)	8 (≈ 31 µM)	> 63	4 (≈ 15.5 µM)	8 (≈ 31 µM)	8 (≈ 31 µM)	8 (≈ 31 µM)	63 (≈ 244 µM)	16 (≈ 62 µM)	32 (≈ 124 µM)	8 (≈ 31 µM)	> 63	8 (≈ 31 µM)	–
NCc1ccc(CC2=C(C(=O)O)N3C(=O)CC3S2)cc1 (stereo not drawn) [Example 85, 2-(p-Aminomethylbenzyl)penem-3-carboxylic Acid]	0.06 (≈ 0.207 µM)	0.06 (≈ 0.207 µM)	0.06 (≈ 0.207 µM)	1	16 (≈ 55.1 µM)	> 63	16 (≈ 55.1 µM)	4 (≈ 13.8 µM)	32 (≈ 110 µM)	> 63	4 (≈ 13.8 µM)	4 (≈ 13.8 µM)	4 (≈ 13.8 µM)	8 (≈ 27.6 µM)	8 (≈ 27.6 µM)	> 63	63 (≈ 217 µM)	8 (≈ 27.6 µM)	63 (≈ 217 µM)	4 (≈ 13.8 µM)	–
NCCSCC1=C(C(=O)O)N2C(=O)CC2S1 (stereo not drawn) [Example 88, 2-(2-Aminoethylthiomethyl)penem-3-carboxylic Acid]	0.13 (≈ 0.499 µM)	0.13 (≈ 0.499 µM)	0.13 (≈ 0.499 µM)	0.5	16 (≈ 61.5 µM)	16 (≈ 61.5 µM)	63 (≈ 242 µM)	4 (≈ 15.4 µM)	8 (≈ 30.7 µM)	> 63	4 (≈ 15.4 µM)	8 (≈ 30.7 µM)	8 (≈ 30.7 µM)	32 (≈ 123 µM)	63 (≈ 242 µM)	16 (≈ 61.5 µM)	16 (≈ 61.5 µM)	32 (≈ 123 µM)	> 63	8 (≈ 30.7 µM)	–
CCC(N)CC1=C(C(=O)O)N2C(=O)CC2S1 (stereo not drawn) [Example 100, 2-(2'-Aminobutyl)-penem-3-carboxylic Acid]	0.25 (≈ 1.03 µM)	0.25 (≈ 1.03 µM)	0.25 (≈ 1.03 µM)	8	> 32	> 32	> 32	4 (≈ 16.5 µM)	16 (≈ 66 µM)	> 32	8 (≈ 33 µM)	16 (≈ 66 µM)	8 (≈ 33 µM)	16 (≈ 66 µM)	> 32	16 (≈ 66 µM)	32 (≈ 132 µM)	8 (≈ 33 µM)	> 32	8 (≈ 33 µM)	–
NCC[S+]([O-])CC1=C(C(=O)O)N2C(=O)C[C@H]2S1 (stereo partly drawn) [Example 101, 2-(2-Aminoethylsulfinylmethyl) penem-3-carboxylic Acid]	0.5 (≈ 1.81 µM)	0.5 (≈ 1.81 µM)	0.5 (≈ 1.81 µM)	4	4 (≈ 14.5 µM)	63 (≈ 228 µM)	> 63	8 (≈ 28.9 µM)	32 (≈ 116 µM)	> 63	8 (≈ 28.9 µM)	16 (≈ 57.9 µM)	32 (≈ 116 µM)	32 (≈ 116 µM)	63 (≈ 228 µM)	16 (≈ 57.9 µM)	32 (≈ 116 µM)	63 (≈ 228 µM)	63 (≈ 228 µM)	16 (≈ 57.9 µM)	–
